Where a name gives a salt, the structure may show the parent alone.
Assay: Evaluation of conversion rate to active form in buffer solution (Experimental Example 1)
Assay type: physicochemical
Details: for Production rate of Alvocidib / Residual rate: 37° C., 25 umol/L in buffer solution
How it was run: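 HPLC read-out: residual parent and Alvocidib production rate after 0, 0.5, 1, 2 and 3 hours. Compounds sat at 25 umol/L, 37° C, in buffers from pH 5.0 to 7.4 (50 mM citrate below pH 6.0, 50 mM phosphate otherwise).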

In the case of `CCN(CC1CCCCN1)C(=O)Oc1cc(O)c2c(=O)cc(-c3ccccc3Cl)oc2c1[C@H]1CCN(C)C[C@H]1O` (stereo partly drawn) [Example 7, 2-(2-chlorophenyl)-5-hydroxy-8-[(3S,4R)-3-hydroxy-1-methylpiperidin-4-yl]-4-oxo-4H-1-benzopyran-7-yl ethyl[(piperidin-2-yl)methyl]carbamate dihydrochloride], the “Production rate of Alvocidib” value (pH5.0, 0 hr) is reported as 0.0%, the Residual rate (pH5.0, 0 hr) is reported as 100.0% and the “Stability in buffer solution at pH 5” value (pH 5, 37° C., up to 2 or 3 hours) is reported as “stable”. The “Production rate of Alvocidib” value (pH5.0, 0.5 hr) was 0.0%, the Residual rate (pH5.0, 0.5 hr) was 100.0% and the “Production rate of Alvocidib” value (pH5.0, 1 hr) was 0.0%. The Residual rate (pH5.0, 1 hr) was 100.0%, the “Production rate of Alvocidib” value (pH5.0, 2 hr) was 1.5% and the Residual rate (pH5.0, 2 hr) was 98.5%. For the same compound, the “Production rate of Alvocidib” value (pH5.0, 3 hr) was 2.3%, the Residual rate (pH5.0, 3 hr) was 97.7% and the “Production rate of Alvocidib” value (pH5.5, 0 hr) was 0.0%. The Residual rate (pH5.5, 0 hr) was 100.0%, the “Production rate of Alvocidib” value (pH5.5, 0.5 hr) was 1.2% and the Residual rate (pH5.5, 0.5 hr) was 98.8%. For the same compound, the “Production rate of Alvocidib” value (pH5.5, 1 hr) was 2.0%, the Residual rate (pH5.5, 1 hr) was 98.0% and the “Production rate of Alvocidib” value (pH5.5, 2 hr) was 3.8%. For the same compound, the Residual rate (pH5.5, 2 hr) was 96.2%, the “Production rate of Alvocidib” value (pH5.5, 3 hr) was 5.1% and the Residual rate (pH5.5, 3 hr) was 94.9%. For the same compound, the “Production rate of Alvocidib” value (pH6.0, 0 hr) was 1.1%, the Residual rate (pH6.0, 0 hr) was 98.9% and the “Production rate of Alvocidib” value (pH6.0, 0.5 hr) was 4.0%. The Residual rate (pH6.0, 0.5 hr) was 96.0%, the “Production rate of Alvocidib” value (pH6.0, 1 hr) was 5.4% and the Residual rate (pH6.0, 1 hr) was 94.6%. For the same compound, the “Production rate of Alvocidib” value (pH6.0, 2 hr) was 12.5%, the Residual rate (pH6.0, 2 hr) was 87.5% and the “Production rate of Alvocidib” value (pH6.0, 3 hr) was 16.6%. For the same compound, the Residual rate (pH6.0, 3 hr) was 83.4%, the “Production rate of Alvocidib” value (pH6.5, 0 hr) was 3.3% and the Residual rate (pH6.5, 0 hr) was 96.7%. For the same compound, the “Production rate of Alvocidib” value (pH6.5, 0.5 hr) was 12.4%, the Residual rate (pH6.5, 0.5 hr) was 87.6% and the “Production rate of Alvocidib” value (pH6.5, 1 hr) was 16.0%. The Residual rate (pH6.5, 1 hr) was 84.0%, the “Production rate of Alvocidib” value (pH6.5, 2 hr) was 26.8% and the Residual rate (pH6.5, 2 hr) was 73.2%. The “Production rate of Alvocidib” value (pH6.5, 3 hr) was 35.2%, the Residual rate (pH6.5, 3 hr) was 64.8% and the “Production rate of Alvocidib” value (pH7.0, 0 hr) was 10.9%. The Residual rate (pH7.0, 0 hr) was 89.1%, the “Production rate of Alvocidib” value (pH7.0, 0.5 hr) was 27.3% and the Residual rate (pH7.0, 0.5 hr) was 72.7%. The “Production rate of Alvocidib” value (pH7.0, 1 hr) was 38.0%, the Residual rate (pH7.0, 1 hr) was 62.0% and the “Production rate of Alvocidib” value (pH7.0, 2 hr) was 52.9%. The Residual rate (pH7.0, 2 hr) was 47.1%, the “Production rate of Alvocidib” value (pH7.0, 3 hr) was 70.5% and the Residual rate (pH7.0, 3 hr) was 29.5%. For the same compound, the “Production rate of Alvocidib” value (pH7.4, 0 hr) was 19.0%, the Residual rate (pH7.4, 0 hr) was 81.0% and the “Conversion to Alvocidib at pH 7.4” value (pH 7.4, 37° C., up to 3 hours) was “rapidly converted to Alvocidib”. For the same compound, the “Production rate of Alvocidib” value (pH7.4, 0.5 hr) was 50.2%, the Residual rate (pH7.4, 0.5 hr) was 49.8% and the “Production rate of Alvocidib” value (pH7.4, 1 hr) was 60.8%. The Residual rate (pH7.4, 1 hr) was 39.2%, the “Production rate of Alvocidib” value (pH7.4, 2 hr) was 69.0% and the Residual rate (pH7.4, 2 hr) was 31.0%. The “Production rate of Alvocidib” value (pH7.4, 3 hr) was 81.0% and the Residual rate (pH7.4, 3 hr) was 19.0%.

Reference: US12617779B2, “Self degradation-type CDK9 inhibitor prodrug and liposome encapsulating same” (Sumitomo Pharma Co., Ltd., priority 2021, dated 2026)
